Experimental findings from publication PMC7297664 (2020) are described below.

Each structure is given as a SMILES string.

Assay [1] concerns RNA 1 (canonical theophylline aptamer) (RNA, aptamer) GGCGAUACCAGCCGAAAGGCCCUUGGCAGCGUC
Nature of the assay: ITC. Conditions: conditions as previously reported (cited).

For assay [2], the system named is RNA 12 (8-oxoG at G11) (RNA, aptamer, 7,8-dihydro-8-oxoguanosine at 11) GGCGAUACCAGCCGAAAGGCCCUUGGCAGCGUC
Nature of the assay: MST binding check. To be noted: Na+ 150 mM (NaCl), 10 nM RNA.

The subject of assay [3] is RNA 9 (canonical theophylline aptamer, Cy5) (RNA, aptamer) GGCGAUACCAGCCGAAAGGCCCUUGGCAGCGUC
Kind of assay: microscale thermophoresis (MST). Conditions: Na+ 150 mM (NaCl); TBS: 50 mM Tris-HCl pH 7.5; 10 nM RNA; incubated in ice.

For assay [4] the test system is unchanged. Nature of the assay: MST binding check. Conditions: Na+ 150 mM (NaCl), 10 nM RNA.
In assay [5] the test system is RNA 10 (8-oxoG at G25) (RNA, aptamer, 7,8-dihydro-8-oxoguanosine at 25) GGCGAUACCAGCCGAAAGGCCCUUGGCAGCGUC
Nature of the assay: MST binding check. To be noted: Na+ 150 mM (NaCl); TBS: 50 mM Tris-HCl pH 7.5; 10 nM RNA; up to 11.25 mM.

Assay [6] concerns RNA 11 (8-oxoG at G26) (RNA, aptamer, 7,8-dihydro-8-oxoguanosine at 26) GGCGAUACCAGCCGAAAGGCCCUUGGCAGCGUC
Kind of assay: MST binding check. To be noted: Na+ 150 mM (NaCl), 10 nM RNA.

Assay [7] has as its system RNA 10 (8-oxoG at G25) (RNA, aptamer, 7,8-dihydro-8-oxoguanosine at 25) GGCGAUACCAGCCGAAAGGCCCUUGGCAGCGUC
Nature of the assay: microscale thermophoresis (MST). To be noted: Na+ 150 mM (NaCl); TBS pH 7.5, up to 5% DMSO; up to 1 mM; incomplete curve, solubility; abstract gives ≈160 μM. (In general: Microscale thermophoresis detects binding through changes in fluorescence in a small temperature gradient.)

Where [8] appears, read: TBS: 50 mM Tris-HCl pH 7.5, up to 11.25 mM.
Where [9] appears, read: TBS pH 7.5, up to 5% DMSO, up to 1 mM.

The Kd is a measure of binding affinity in units of concentration. A high value points to weaker binding. Regarding `Cn1c(=O)c2[nH]cnc2n(C)c1=O`, the Kd in assay [1] (mean of two runs, 0.72 and 1.98 μM) is 1.35 µM; in assay [3], 29 ± 35 µM. The binding entry in assay [2] (setting [8]) was “no”.

Regarding `Cn1c(=O)c2c(ncn2C)n(C)c1=O`, the binding entry in assay [1] (printed Kd = NA), in assay [4] (setting [8]), in assay [5], in assay [6] (setting [8]) and in assay [2] (setting [8]) was “no” each time.

`Cn1cnc2c1c(=O)[nH]c(=O)n2C`: the binding result in assay [4] (setting [9]), in assay [6] (setting [9]) and in assay [2] (setting [9]) was “no” throughout. In assay [7], the dissociation constant Kd is above 160 µM.
